{
  "source": "patent US20200069664A1",
  "about": "“METHODS FOR TREATING INFECTION” (Salix Pharmaceuticals, Ltd, priority 2010, published 2020)",
  "key": {"[1]": {"tested_on": "C difficile isolates", "assay": "In vitro susceptibility of C difficile isolates (agar dilution for rifaximin, Etest for rifampin)"}, "[2]": {"tested_on": "HEp-2 cells", "assay": "Cytokine array of supernatants of treated HEp-2 cells", "conditions": "64 μg/ml, 24 h; Panomics array of 36 cytokines"}, "[3]": {"tested_on": "EAEC", "assay": "Effect of dialyzed supernatants of treated HEp-2 cells on EAEC adherence", "format": "cell-based, E. coli", "conditions": "HEp-2 treated 24 h with 64 mg/ml (so in the source); chambered slides with or without HEp-2 cells, 3 h", "experimental": "Supernatant dialysis. HEp-2 cells were cultured in T-175 flasks as described above. […] After 24 h, the medium was collected, loaded into regenerated cellulose dialysis tubing (cutoff, 6 to 8 kDa; Spectra/Por, Rancho Domiguez, Calif.), and dialyzed against 4 liters of PBS changed four times. Each dialysis step lasted at least 6 h and was carried out at 4° C. Dialyzed supernatants were either used immediately in adherence assays or stored at −20° C. until use.\nThe effect of supernatants on EAEC adherence was determined by mixing EAEC with the dialyzed media from the different antibiotic (or control) treatment groups and adding the bacteria to HEp-2 cells cultured in chambered slides or to chambered slides with no HEp-2 cells. Adherence was visualized microscopically as described above."}, "[4]": {"tested_on": "EAEC strain O42", "format": "cell-based, E. coli"}},
  "note": "Read-outs that look alike come from different tables or passages of the source.",
  "data": [
    {"smiles": "CO[C@H]1/C=C/O[C@@]2(C)Oc3c(C)c(O)c4c(O)c(c(/C=N/N5CCN(C)CC5)c(O)c4c3C2=O)NC(=O)/C(C)=C\\C=C\\[C@H](C)[C@H](O)[C@@H](C)[C@@H](O)[C@@H](C)[C@H](OC(C)=O)[C@@H]1C", "note": "[Rifampin, rifampin]", "values": [
      {"measurement": "MIC50", "setting": "[1]", "result": "< 0.002", "unit": "µg/mL"},
      {"measurement": "MIC90", "setting": "[1]", "result": 4, "unit": "µg/mL"},
      {"measurement": "MIC50", "setting": "[1]; 359 C difficile isolates", "result": "<0.002", "unit": "µg/mL"},
      {"measurement": "Resistant isolates, percent of 359", "setting": "[1]; resistance = MIC≥32 μg/mL, for rifaximin b194 says 'rifaximin alone'", "result": 8, "unit": "%"},
      {"measurement": "Cytokines detected in supernatants of treated HEp-2 cells", "setting": "[2]", "result": "same profile, except that MIPS was not detected"},
      {"measurement": "Adherence of EAEC mixed with dialyzed supernatants from treated HEp-2 cells", "setting": "[3]", "result": "adhered to chambers independently of the presence of HEp-2 cells"},
      {"measurement": "EAEC O42 adherence to pretreated HEp-2 cells (microscopy, stacked-brick pattern)", "setting": "[4]", "result": "adhered in the traditional stacked-brick formation"}
    ]}
  ]
}
